Here are results for 15 compounds from patent publication US5639779A, “Indole derivatives as 5-HT1-like agonists” (Pfizer Inc., priority 1992, dated 1997).

Data set [1] concerns the target T1, "5-HT1 -like" receptor (dog isolated saphenous vein strip) (Canis lupus familiaris, UniProt P79250).
T1 construct: contracting the isolated dog saphenous vein strip; from tissue; host or cells: dog isolated saphenous vein strip
Kind of data set: contraction of dog isolated saphenous vein strip (5-HT1-like receptor agonist activity). Format: cell-based. The following applies: in vitro; for RELATIVE POTENCY EC50 (compound)/EC50 (5-HT): ratio to 5-HT; for EC50: read-out: EC50 (concentration of compound which causes 50% of the maximum contraction effected by it). Here is the method: The in vitro evaluation of the "5-HT1 -like" receptor agonist activity of the compounds of the invention is carried out by testing the extent to which they mimic sumatriptan in contracting the isolated dog saphenous vein strip (P. P. A. Humphrey et al., Brit. J. Pharmacol., 1988, 94, 1123).
The following Table illustrates the in vitro activities for a range of the Compounds of the invention on dog isolated saphenous vein strip. EC50 represents the concentration of compound which causes 50% of the maximum contraction effected by it.

The test system of the next data set is conscious dogs. Kind of data set: acute toxicity in conscious dogs. Format: in vivo, dog. Particulars: doses of up to 1 mg/Kg i.v.
Data set [2] relates to carotid vascular resistance / carotid arterial blood flow. The following applies: anaesthetized dog; cited from earlier work.
For data set [3], the target named is T1, "5-HT1 -like" receptor (dog isolated saphenous vein strip). The following applies: effect of sumatriptan-like contraction blocked by a known 5-HT antagonist; cited from earlier work.

T1 sequence (P79250 whole entry): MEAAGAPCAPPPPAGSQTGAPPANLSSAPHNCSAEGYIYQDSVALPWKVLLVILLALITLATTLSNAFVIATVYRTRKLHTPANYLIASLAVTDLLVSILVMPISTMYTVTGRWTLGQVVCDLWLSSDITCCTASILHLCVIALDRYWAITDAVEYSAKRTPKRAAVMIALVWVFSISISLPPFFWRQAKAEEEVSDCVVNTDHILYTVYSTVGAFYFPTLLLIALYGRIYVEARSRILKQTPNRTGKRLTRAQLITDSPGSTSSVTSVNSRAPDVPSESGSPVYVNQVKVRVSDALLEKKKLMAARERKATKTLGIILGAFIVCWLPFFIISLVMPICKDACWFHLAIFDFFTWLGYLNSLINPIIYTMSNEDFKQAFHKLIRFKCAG

Regarding `CCS(=O)(=O)CCc1ccc2[nH]cc(C[C@H]3CCCN3C(C)c3ccccc3)c2c1` (mixture of isomers) [Example 13, 5-(2-Ethylsulphonylethyl)-3-{N-(1(R,S)-phenylethyl]-2(R)-pyrrolidinylmethyl}-1H-indole], in data set [1], the “RELATIVE POTENCY EC50 (compound)/EC50 (5-HT)” value (“RELATIVE POTENCY EC50” below) is 1.4 and the EC50 turned out to be 71 nM. Further, in the data set on conscious dogs, the “signs of adverse acute toxicity” value is “no signs of adverse acute toxicity”.
`CCS(=O)(=O)CCc1ccc2[nH]cc(C[C@H]3CCCN3CC[S+]([O-])c3ccccc3)c2c1` (single isomer, unassigned) [Example 37A]: in data set [1], the “RELATIVE POTENCY EC50” value is 4.6 and the EC50 came out at 290 nM.
As to `CCS(=O)(=O)CCc1ccc2[nH]cc(C[C@H]3CCCN3Cc3ccccn3)c2c1` [Example 1, 5-(2-Ethylsulphonylethyl)-3-[N-[2-pyridylmethyl)-2(R)-pyrrolidinylmethyl]-1H-indole], in data set [1], the “RELATIVE POTENCY EC50” value is 9.4 and the EC50 was determined as 430 nM.
As for `CCS(=O)(=O)CCc1ccc2[nH]cc(C[C@H]3CCCN3CCOC)c2c1` [Example 4, 5-(2-Ethylsulphonylethyl)-3-[N-(2-methoxyethyl)-2-(R)-pyrrolidinylmethyl]-1H-indole], in data set [1], the “RELATIVE POTENCY EC50” value is on record as 2.3 and the EC50 worked out at 120 nM.
With `CCS(=O)(=O)CCc1ccc2[nH]cc(C[C@H]3CCCN3CC=C(C)C)c2c1` [Example 8, 5-(2-Ethylsulphonylethyl)-3-[N-(3-methyl-2-butenyl)-2(R)-pyrrolidinylmethyl]-1H-indole], in data set [1], the “RELATIVE POTENCY EC50” value came to 2.5 and the EC50 stood at 190 nM. For the same compound, the “signs of adverse acute toxicity” value in the data set on conscious dogs was “no signs of adverse acute toxicity”.
Consider `CCS(=O)(=O)CCc1ccc2[nH]cc(C[C@H]3CCCN3C3CCCC3)c2c1` [Example 9, 3-(N-Cyclopentyl-2(R)-pyrrolidinylmethyl)-5-(2-ethylsulphonylethyl)-1H-indole], for which, in data set [1], the “RELATIVE POTENCY EC50” value is recorded as 1.8 and the EC50 was 82 nM.
`O=S(=O)(CCc1ccc2[nH]cc(C[C@H]3CCCN3C3CCCC3)c2c1)c1ccccc1` [Example 21, 3-(N-Cyclopentyl-2(R)-pyrrolidinylmethyl)-5-(2-phenylsulphonylethyl)-1H-indole]: in data set [1], the “RELATIVE POTENCY EC50” value turned out to be 4.9 and the EC50 stood at 560 nM.
For `CCS(=O)(=O)CCc1ccc2[nH]cc(C[C@H]3CCCN3CCO)c2c1` [Example 26, 5-(2-Ethylsulphonylethyl)-3-[N-(2-hydroxyethyl)-2(R)pyrrolidinylmethyl]-1H-indole] the same measures were 3.8 and 160 nM.
For `CCS(=O)(=O)CCc1ccc2[nH]cc(C[C@H]3CCCN3CCC(C)=O)c2c1` [Example 31, 5-(2-Ethylsulphonylethyl)-3-[N-{3-oxo-1-butyl)-2(R)-pyrrolidinylmethyl]-1H-indole] the same measures were 1.9 and 31 nM.
In the same order, the values of `CCS(=O)(=O)CCc1ccc2[nH]cc(C[C@H]3CCCN3CCC(N)=O)c2c1` [Example 34] are 1.4 and 62 nM.
Take `CCS(=O)(=O)CCc1ccc2[nH]cc(C[C@H]3CCCN3CCc3ccccn3)c2c1` [Example 36]: in data set [1], the “RELATIVE POTENCY EC50” value turned out to be 11.0 and the EC50 worked out at 290 nM.
In the same order, the values of `CC(=O)CCN1CCC[C@@H]1Cc1c[nH]c2ccc(CCS(=O)(=O)c3ccccc3)cc12` [Example 38, 3-[N-(3-Oxo-1-butyl)-2-(R)-pyrroldinylmethyl]-5-(2phenylsulphonylethyl)-1H-indole] are 3.4 and 440 nM.
In the same order, the values of `NS(=O)(=O)C=Cc1ccc2[nH]cc(C[C@H]3CCCN3CC3CC3)c2c1` [Example 44, 3-(N-Cyclopropylmethyl-2(R)-pyrrolidinomethyl)-5-(2-sulphamoylethenyl)-1H-indole] are 2.7 and 180 nM.
Regarding `CNS(=O)(=O)Cc1ccc2[nH]cc(CCN(C)C)c2c1` [Sumatriptan], in data set [2], the “carotid arterial blood flow” value is “consequent decrease”.
On to `CSc1ccc2c(c1)C(N1CCN(C)CC1)Cc1ccccc1S2` (stereo not drawn) [methiothepin], for which the “blockade of contraction of dog saphenous vein strip” value in data set [3] is “can be blocked”.
